Eight compounds from PubChem BioAssay AID190 (DTP/NCI, 2004) can be followed below.

The test concerns AKR/Lw mice, AKR lymphoma ip, median survival T/C. The experiment in a line: NCI In Vivo Anticancer Drug Screen. Data for tumor model Lymphoma AKR (Transplanted) (intraperitoneal) in AKR/Lw mice. As to conditions: endpoint: median survival time, higher = longer survival. How it is done: The antitumor activity of compounds was measured in mice bearing transplantable tumors. Survival or tumor size were measured and the results are expressed as the measurement made in the treated group (T) divided by the measurement made in the vehicle treated control group (C). The tumor model used in this assay is Lymphoma AKR (Transplanted) (intraperitoneal) in AKR/Lw mice

Setting [1] is: dose: 25.0 mg/kg/injection, schedule: Q01DX009 (ip), vehicle: Klucel (hydroxypropylcellulose) (HPC).
Where [2] appears, read: dose: 50.0 mg/kg/injection, schedule: Q01DX009 (ip), vehicle: Klucel (hydroxypropylcellulose) (HPC).
[3] abbreviates: dose: 50.0 mg/kg/injection, schedule: Q04DX003 (ip), vehicle: other.
The mark [4] stands for this setting: dose: 100.0 mg/kg/injection, schedule: Q01DX001 (ip), vehicle: saline.
Setting [5] is: dose: 100.0 mg/kg/injection, schedule: Q04DX003 (ip), vehicle: other.
The mark [6] stands for this setting: dose: 200.0 mg/kg/injection, schedule: Q01DX001 (ip), vehicle: saline.
[7] abbreviates: dose: 200.0 mg/kg/injection, schedule: Q04DX003 (ip), vehicle: other.
Where [8] appears, read: dose: 25.0 mg/kg/injection, schedule: Q01DX001 (ip), vehicle: saline.
[9] abbreviates: dose: 50.0 mg/kg/injection, schedule: Q01DX001 (ip), vehicle: saline.
Setting [10] is: dose: 100.0 mg/kg/injection, schedule: Q01DX001 (ip), vehicle: Klucel (hydroxypropylcellulose) (HPC).
[11] abbreviates: dose: 200.0 mg/kg/injection, schedule: Q01DX001 (ip), vehicle: Klucel (hydroxypropylcellulose) (HPC).
[12] abbreviates: dose: 400.0 mg/kg/injection, schedule: Q01DX001 (ip), vehicle: Klucel (hydroxypropylcellulose) (HPC).
The mark [13] stands for this setting: dose: 25.0 mg/kg/injection, schedule: Q04DX003 (ip), vehicle: Klucel (hydroxypropylcellulose) (HPC).
Where [14] appears, read: dose: 50.0 mg/kg/injection, schedule: Q04DX003 (ip), vehicle: Klucel (hydroxypropylcellulose) (HPC).

Values joined by “and” are separate entries in the source; they are usually repeats but may differ in a detail not shown here. Equal entries are not always repeated. Toxic doses and inconclusive results are not listed.

Take `N#CCCNc1ccc(NC(=O)C(F)(F)F)cc1`: the T/C under setting [1] is 96 % of control; the T/C under setting [2] was 89 % of control; the T/C under setting [3] is 90 % of control; the T/C under setting [4] is 103 % of control; the T/C under setting [5] is 95 % of control; the T/C under setting [6] was 100 % of control. Also, the T/C under setting [7] is 95 % of control.
Take `COc1ccc(S(=O)O)cc1NC(C)=O`: the T/C under setting [3] is 95 % of control; the T/C under setting [4] was 107 % of control; the T/C under setting [5] is 97 % of control; the T/C under setting [6] is 101 % of control; the T/C under setting [7] is 95 % of control.
`CCCN(CCC)CC(C)=O`: the T/C runs as follows: (dose: 11.0 mg/kg/injection, schedule: Q01DX001 (ip), vehicle: saline) 106 % of control; (dose: 17.0 mg/kg/injection, schedule: Q01DX001 (ip), vehicle: saline) 103 % of control; under setting [8], 100 % of control; (dose: 37.5 mg/kg/injection, schedule: Q01DX001 (ip), vehicle: saline) 100 % of control; under setting [9], 115 % of control; under setting [4], 105 % of control and 110 % of control.
Regarding `CC(C)OC(=O)Oc1cccc2c1C(=O)c1ccccc1C2=O`, the T/C runs as follows: under setting [10], 95 % of control; under setting [11], 91 % of control.
On to `ClC1=C(Cl)C2(Cl)C3COCC3C1(Cl)C2(Cl)Cl` (centres undefined), for which the T/C is 100 % of control under setting [10], 93 % of control under setting [11] and 91 % of control under setting [12].
For `O=C(COc1ccc(Cl)c(Cl)c1)N(Cc1ccccc1)Cc1cccnc1`, the T/C reads like this: under setting [10], 110 % of control; under setting [11], 108 % of control; under setting [12], 102 % of control.
Consider `CCn1c(O)c(C=N)c(=O)n(CC)c1=O`, for which the T/C (dose: 12.0 mg/kg/injection, schedule: Q01DX001 (ip), vehicle: saline) is 97 % of control; the T/C (dose: 12.5 mg/kg/injection, schedule: Q04DX003 (ip), vehicle: Klucel (hydroxypropylcellulose) (HPC)) was 100 % of control; the T/C under setting [8] was 111 % of control; the T/C under setting [13] was 93 % of control; the T/C under setting [9] is 94 % of control; the T/C under setting [14] is 97 % of control.
Consider `NC(=S)N/N=C/c1ccc(O)cn1`, for which the T/C is 116 % of control (dose: 3.12 mg/kg/injection, schedule: Q01DX009 (ip), vehicle: Klucel (hydroxypropylcellulose) (HPC)); 214 % of control (dose: 12.5 mg/kg/injection, schedule: Q01DX009 (ip), vehicle: Klucel (hydroxypropylcellulose) (HPC)); 115 % of control (dose: 20.0 mg/kg/injection, schedule: Q06HX008 (ip), vehicle: Klucel (hydroxypropylcellulose) (HPC)); 115 % of control (dose: 20.0 mg/kg/injection, schedule: Q06HX012 (ip), vehicle: Klucel (hydroxypropylcellulose) (HPC)); 119 % of control under setting [1]; 116 % of control under setting [13]. Further, the T/C runs as follows: (dose: 30.0 mg/kg/injection, schedule: Q06HX008 (ip), vehicle: Klucel (hydroxypropylcellulose) (HPC)) 107 % of control; (dose: 31.25 mg/kg/injection, schedule: Q06HX004 (ip), vehicle: saline) 116 % of control; (dose: 31.25 mg/kg/injection, schedule: Q06HX012 (ip), vehicle: saline) 96 % of control; (dose: 31.25 mg/kg/injection, schedule: Q06HX016 (ip), vehicle: saline) 113 % of control; (dose: 40.0 mg/kg/injection, schedule: Q06HX008 (ip), vehicle: Klucel (hydroxypropylcellulose) (HPC)) 103 % of control; (dose: 40.0 mg/kg/injection, schedule: Q06HX012 (ip), vehicle: Klucel (hydroxypropylcellulose) (HPC)) 123 % of control. For the same compound, the T/C reads like this: under setting [2], 110 % of control and 214 % of control; under setting [14], 123 % of control; (dose: 50.0 mg/kg/injection, schedule: Q06HX008 (ip), vehicle: Klucel (hydroxypropylcellulose) (HPC)) 88 % of control; (dose: 50.0 mg/kg/injection, schedule: Q06HX012 (ip), vehicle: Klucel (hydroxypropylcellulose) (HPC)) 111 % of control; (dose: 60.0 mg/kg/injection, schedule: Q06HX008 (ip), vehicle: Klucel (hydroxypropylcellulose) (HPC)) 119 % of control; (dose: 60.0 mg/kg/injection, schedule: Q06HX012 (ip), vehicle: Klucel (hydroxypropylcellulose) (HPC)) 103 % of control. For the same compound, the T/C (dose: 62.5 mg/kg/injection, schedule: Q06HX004 (ip), vehicle: saline) is 90 % of control; the T/C (dose: 62.5 mg/kg/injection, schedule: Q06HX008 (ip), vehicle: saline) is 110 % of control; the T/C (dose: 62.5 mg/kg/injection, schedule: Q06HX012 (ip), vehicle: saline) is 113 % of control; the T/C (dose: 62.5 mg/kg/injection, schedule: Q06HX016 (ip), vehicle: saline) was 120 % of control; the T/C (dose: 75.0 mg/kg/injection, schedule: Q01DX009 (ip), vehicle: Klucel (hydroxypropylcellulose) (HPC)) was 173 % of control; the T/C (dose: 100.0 mg/kg/injection, schedule: Q04DX003 (ip), vehicle: Klucel (hydroxypropylcellulose) (HPC)) is 120 % of control. The T/C runs as follows: (dose: 125.0 mg/kg/injection, schedule: Q06HX008 (ip), vehicle: saline) 96 % of control; (dose: 125.0 mg/kg/injection, schedule: Q06HX012 (ip), vehicle: saline) 86 % of control; (dose: 200.0 mg/kg/injection, schedule: Q04DX003 (ip), vehicle: Klucel (hydroxypropylcellulose) (HPC)) 123 % of control.
